Experiment [1] deals with endoplasmic reticulum vesicles. In words: Outflow of calcium ions from endoplasmic reticulum vesicles versus external magnesium ion concentration. In kind it is biochemical. The note with it: with an increase in the concentration of Mg++ in the medium (FIG. 2). As to the method:
In particular, the dependence of the flow at the outlet of the calcium ions on the external concentration of magnesium ions was evaluated. The results obtained are shown in the graph of FIG. 2.

The test system of experiment [2] is nerve-muscle co-culture model. Kind of experiment: Contraction frequency in a nerve-muscle co-culture model with acetyl Dipeptide-1 cetyl ester. In kind it is cell-based. The following applies: for contraction inhibition: 0.9%. As to the method: The decontracting efficacy was evaluated, of dipeptide N-acetyl tyrosyl-arginyl (Dipeptide) hexadecyl ester, dissolved in a hydro-glycol excipients.
• 1. […] Evaluation of the contraction frequency in a nerve-muscle co-culture model in incubation with acetyl Dipeptide-1 cetyl ester at 0.9% for 5 minutes and 2 h.

In the next experiment the test system is POMC gene. In words: Gene expression of the POMC gene in a culture of human keratinocytes. In kind it is cell-based. The note with it: human keratinocytes incubated for 24 h.
For a further experiment, the system named is CGRP. Kind of experiment: CGRP synthesis in a culture of neurons. The format is cell-based. The following applies: neurons incubated for 6 hours.
In experiment [3] the test system is nerve-muscle co-culture model. Kind of experiment: In vitro efficacy test on pentapeptide: contraction frequency in a nerve-muscle co-culture model. The format is cell-based. The following applies: 0.3% by weight, contractions counted over 30 sec. As to the method:
In vitro efficacy test on pentapeptide
The frequency of the contractions was determined in a nerve-muscle co-culture model to evaluate the decontracting capacity of pentapeptide gly-pro-arg-pro -ala-NH2 SEQ ID NO 1, used at a concentration of 0.3% by weight.

Where no end group is shown, it is not given here. Bounds are passed on as bounds.

As for Magnesium ions, in experiment [1], the “quantity of Calcium ions released from the endoplasmic reticulum vesicles” value is reported as “decreases”.
Consider “N-acetyl tyrosyl-arginyl (Dipeptide) hexadecyl ester [acetyl Dipeptide-1 cetyl ester]”, for which the contraction inhibition result in experiment [2] (after 5 minutes of incubation, 1 fiber out of 3) is recorded as “higher than 20%”; in experiment [2] (after 2 hours of incubation, all 3 fibers), 100%. Besides, the “over-expression of the POMC gene with respect to the reference” value is given as “> +29%” in the experiment on POMC gene (0.9%) and “> +63%” in the experiment with POMC gene (1.9%). Also, the “reduction in the CGRP synthesis with respect to the reference” value with CGRP (2.8%) is −0%; in the experiment with CGRP (4.7%), −50%.
Consider “gly-pro-arg-pro-ala-NH2 (GPRPA-NH2) [pentapeptide]”, for which the “average reduction in the contraction frequency” value in experiment [3] (after 1 minute of incubation) was found to be 69.75%; in experiment [3] (after 2 hours of incubation), 60.75%.
In the case of α-bungarotoxin [reference compound], the “DECREASE IN THE MUSCULAR FIBER CONTRACTION, Positive reference (α-bungarotoxin)” value in experiment [2] is “Blockage”.

These data come from patent US7846483B2, “Cosmetic composition for skin application suitable for relaxing expression wrinkles” (Labo Cosprophar AG, priority 2004, dated 2010).
